# In patent publication US20110033393A1, “Hydrazone Compounds and Their Use” (priority 2009, published 2011):
# Assays:
# Beta-TC-6 cells = assay: Insulin release enhancement in insulinoma cell line Beta-TC-6 (Assay 1); type: cell-based, mouse
# Experimental: Assay I: Insulin release enhancement by TRPM5 inhibitors was tested by the following procedure. Beta-TC-6 cells are an insulin-secreting cell line derived from transgenic mice expressing the large T-antigen of simian virus 40 (SV40) in pancreatic beta-cells as described by Poitout et al., Diabetes, 44:306-313 (1995). The cell line was obtained from ATCC cell bank CAT# CRL-11506 and grown in Dulbecco's Modified Eagle's Medium (DMEM) with 15% fetal bovine serum (FBS), 4 mM glutamine, 4.5 g/L glucose, 110 mg/L sodium pyruvate and 1× penn/strep antibiotic mix in a 37° C. incubator with 5% CO2. Cultures were routinely split 1:2 twice a week with the aid of trypsin.
# The day before the assay 0.15×10^6 Beta-TC-6 cells were plated into each well of 96 well plates (Greiner bio-one V-bottom, Cat#: 651 180). The cells were spun at 1200 rpm for 5 min and cultured overnight. […] Insulin release in the supernatant was assessed using a commercially available ELISA kit (Mercodia Cat#: 10-1149-10) according to the manufacturer's protocol. The data were expressed as pg of insulin per number of cells. […]
# GLUTag cells = assay: GLP-1 release using GLUTag cells (Assay 1); type: cell-based, mouse
# Experimental: Mouse GLUTag cells are a native intestinal cell line which expresses TRPM5. The cell line was obtained from Dr. Daniel J. Drucker in the Division of Endocrinology, Department of Medicine, at University of Toronto, and grown in Invitrogen Dulbecco's Modified Eagle's Medium (DMEM) high glucose (Cat#: 11995) with 10% fetal bovine serum (FBS) and 1× penn/strep antibiotic mix in a 37° C. incubator with 5% CO2.
# Assay 1: All reagents and media were pre-warmed to room temperature prior to the beginning of the experiment.
# Seeding of Cell Plate: BD 96-well Matrigel-coated plates (Fisher, Cat #: 08-774-166) were rehydrated using 100 μL of plating media (Invitrogen Cat #: 31985) OPTI-Modified Eagle's Medium (MEM) with 10% FBS and 1× penn/strep antibiotic mix and incubated for 30 minutes in a 37° C. incubator and 5% CO2. The rehydration media was aspirated and GLUTag cells were plated at 100 ul per well at a density of 7.5×10^5 cells/ml. The plates were then incubated overnight in a 37° C. incubator and 5% CO2.
# The following protocol utilized the Millipore GLP-1 ELISA Kit (Cat. #: EGLP-35K) to analyze GLP-1 secretion from GLUTag cells in the presence of TRPM5 inhibitors/enhancers and glucose.
# ELISA Assay Day 1: Stock solutions and dilution plates of TRPM5 inhibitors or enhancers were prepared. […]
compound,measurement,setting,value
"Cc1cc(/C=N/NC(=O)C2CC2c2ccccc2)cc2cccnc12 (racemic) [Example 10, trans-N′-((8-Methylquinolin-6-yl)methylene)-2-phenylcyclopropanecarbohydrazide]",insulin secretion,"Beta-TC-6 cells; Beta-TC-6, in the presence of 0.3 mM glucose",does not occur
same,insulin secretion,"Beta-TC-6 cells; Beta-TC-6, in the presence of 1 mM glucose",dose-dependent increase of insulin secretion
same,GLP-1 secretion,GLUTag cells; in the presence of 0.1 mM glucose,is not observed
same,GLP-1 secretion,GLUTag cells; in the presence of 0.3 mM glucose,dose-dependent increase of GLP-1 secretion
